Measured values taken from the supplement of paper PMC8960247.
Counter-ions that a name gives are not always drawn. ± gives the standard error.

Key:
621-102 (TSC2-deficient) = experiment: relative viability vs DMSO; higher = less cytotoxic; details: serum: 10% FBS, 72 h
621-103 (TSC2-rescued) = experiment: as above; details: serum: 10% FBS, 72 h
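Note: immortalized renal angiomyolipoma cells stably carrying empty vector or TSC2, dosed in 384-well plates in DMEM, viability normalized to vehicle-treated wells within each plate.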

| SMILES | relative viability (621-102 (TSC2-deficient); 0.0001 µM) | relative viability (621-102 (TSC2-deficient); 0.001 µM) | relative viability (621-102 (TSC2-deficient); 0.01 µM) | relative viability (621-102 (TSC2-deficient); 0.1 µM) | relative viability (621-102 (TSC2-deficient); 1 µM) | relative viability (621-102 (TSC2-deficient); 10 µM) | relative viability (621-103 (TSC2-rescued); 0.0001 µM) | relative viability (621-103 (TSC2-rescued); 0.001 µM) | relative viability (621-103 (TSC2-rescued); 0.01 µM) | relative viability (621-103 (TSC2-rescued); 0.1 µM) | relative viability (621-103 (TSC2-rescued); 1 µM) | relative viability (621-103 (TSC2-rescued); 10 µM) |
| --- | --- | --- | --- | --- | --- | --- | --- | --- | --- | --- | --- | --- |
| CCc1nc(N)nc(N)c1-c1ccc(Cl)cc1 [Pyrimethamine] | 99.7 ± 4.9% | 108.7 ± 0.4% | 95.6 ± 3.3% | 95.7 ± 2.5% | 100 ± 1.8% | 93.14 ± 0.75% | 105 ± 2% | 105.5 ± 0.94% | 104 ± 3.5% | 101 ± 2% | 104.3 ± 0.2% | 102 ± 4.4% |
| O=c1c(O)c(-c2ccc(O)c(O)c2)oc2cc(O)cc(O)c12 [Quercetin (Sophoretin)] | 64.8 ± 5.1% | 65.4 ± 7.3% | 68.4 ± 9.3% | 75 ± 10% | 78.2 ± 10% | 73.3 ± 5% | 87 ± 2% | 79.1 ± 1.4% | 88.6 ± 3.3% | 95.2 ± 6.2% | 89.4 ± 4.9% | 86.8 ± 1.1% |
| COc1cc(Nc2ncc(F)c(Nc3ccc4c(n3)NC(=O)C(C)(C)O4)n2)cc(OC)c1OC [R406 (free base)] | 114.2 ± 0.84% | 110 ± 2.3% | 105 ± 1.1% | 105 ± 1.2% | 105.4 ± 0.42% | 101 ± 2.1% | 99.45 ± 0.77% | 98.41 ± 0.3% | 101.7 ± 0.23% | 99.5 ± 1.3% | 98.1 ± 0.7% | 70.26 ± 0.23% |
| COc1cc(Nc2ncc(F)c(Nc3ccc4c(n3)NC(=O)C(C)(C)O4)n2)cc(OC)c1OC [R406] | 117 ± 2% | 110 ± 2.2% | 111 ± 1.2% | 109 ± 0.81% | 100.2 ± 0.76% | 117.2 ± 1.1% | 101 ± 1.9% | 100 ± 1.5% | 98.7 ± 1.4% | 99.27 ± 0.46% | 99.6 ± 1.3% | 89.7 ± 2.5% |
| CC(=O)SCC(Cc1ccccc1)C(=O)NCC(=O)OCc1ccccc1 (stereo not drawn) [Racecadotril] | 134 ± 1.7% | 120 ± 3.8% | 122 ± 1.8% | 107 ± 3.7% | 114 ± 5.8% | 113 ± 1.3% | 104 ± 4.4% | 95.5 ± 2% | 101 ± 4.2% | 101 ± 3.7% | 106 ± 1.2% | 99.3 ± 2.2% |
| FC(F)(F)c1ccc(Nc2nc3ccc(Oc4ccnc(-c5ncc(C(F)(F)F)[nH]5)c4)cc3[nH]2)cc1 [Raf265 derivative] | 113.2 ± 0.3% | 94.5 ± 1.8% | 106.8 ± 0.2% | 112 ± 4.1% | 102 ± 6.6% | 72.52 ± 0.56% | 110 ± 2.7% | 108 ± 6.7% | 94.7 ± 5% | 103 ± 5.7% | 101 ± 4.6% | 73.2 ± 7% |
| Cc1nnc(C(=O)NC(C)(C)c2nc(C(=O)NCc3ccc(F)cc3)c(O)c(=O)n2C)o1 [Raltegravir] | 106 ± 3.9% | 106 ± 3.1% | 108 ± 4.3% | 101.8 ± 0.33% | 110 ± 3.2% | 106 ± 3.2% | 99.5 ± 3% | 101 ± 1.5% | 100 ± 1.3% | 98.8 ± 1.3% | 101 ± 1.4% | 105 ± 2.1% |
| Cc1nc(=O)c2cc(CN(C)c3ccc(C(=O)N[C@@H](CCC(=O)O)C(=O)O)s3)ccc2[nH]1 [Raltitrexed (Tomudex)] | 86.7 ± 3.5% | 92.8 ± 1.6% | 107 ± 1.7% | 103.6 ± 0.8% | 92.5 ± 1.6% | 80.3 ± 1.2% | 99.1 ± 5.1% | 97.1 ± 4.5% | 115 ± 4.2% | 113 ± 1.8% | 102.7 ± 0.7% | 96.3 ± 3.2% |
| CCOC(=O)[C@H](CCc1ccccc1)N[C@@H](C)C(=O)N1[C@H](C(=O)O)C[C@@H]2CCC[C@@H]21 [Ramipril] | 107.5 ± 1% | 108 ± 2.2% | 102.3 ± 0.74% | 106 ± 4.6% | 108 ± 2.3% | 106.9 ± 0.7% | 104 ± 5.8% | 104 ± 2.4% | 92.3 ± 11% | 106 ± 0.85% | 102 ± 5% | 111 ± 1.6% |
| CNC(=C[N+](=O)[O-])NCCSCc1ccc(CN(C)C)o1 [Ranitidine HCl] | 103 ± 8.4% | 104 ± 0.46% | 101 ± 2.8% | 97.8 ± 2.7% | 105 ± 2.8% | 97.6 ± 0.51% | 107 ± 3.1% | 106 ± 3.6% | 103.5 ± 0.96% | 106 ± 1.3% | 103 ± 3% | 100.1 ± 0.51% |
| CO[C@H]1C[C@@H]2CC[C@@H](C)[C@@](O)(O2)C(=O)C(=O)N2CCCC[C@H]2C(=O)O[C@H]([C@H](C)C[C@@H]2CC[C@@H](O)[C@H](OC)C2)CC(=O)[C@H](C)/C=C(\C)[C@@H](O)[C@@H](OC)C(=O)[C@H](C)C[C@H](C)/C=C/C=C/C=C/1C [Rapamycin (Sirolimus)] | 37 ± 2.8% | 43.2 ± 5% | 38.8 ± 3.9% | 41.6 ± 2.9% | 44.6 ± 5.5% | 44.8 ± 2% | 80.829 ± 0.071% | 63.1 ± 2.6% | 70 ± 2.1% | 78.1 ± 1.8% | 71.36 ± 0.67% | 68.1 ± 2.8% |
| CC(NCCc1ccc(O)cc1)C(O)c1ccc(O)cc1 (stereo not drawn) [Ritodrine HCl] | 110 ± 1.6% | 112.1 ± 0.64% | 101 ± 2.7% | 100 ± 1.3% | 100 ± 1.4% | 102 ± 6.3% | 100 ± 5% | 98 ± 2.1% | 102 ± 2.8% | 98.2 ± 6.2% | 97.3 ± 6.2% | 86.5 ± 1.5% |
| CC(C)c1nc(CN(C)C(=O)N[C@H](C(=O)N[C@@H](Cc2ccccc2)C[C@H](O)[C@H](Cc2ccccc2)NC(=O)OCc2cncs2)C(C)C)cs1 [Ritonavir] | 106.1 ± 0.46% | 98.8 ± 4.8% | 105 ± 4.1% | 104 ± 1.4% | 100 ± 1.4% | 102 ± 2.6% | 99.5 ± 0.28% | 99.3 ± 1.5% | 98.8 ± 0.17% | 97.77 ± 0.48% | 97.6 ± 2.4% | 98.28 ± 0.37% |
| O=C(NC[C@H]1CN(c2ccc(N3CCOCC3=O)cc2)C(=O)O1)c1ccc(Cl)s1 [Rivaroxaban (Xarelto)] | 101 ± 5.5% | 104.4 ± 0.87% | 122.4 ± 0.29% | 117 ± 6.5% | 116 ± 1.6% | 120 ± 3.2% | 105 ± 2.4% | 116 ± 3.4% | 121 ± 1.5% | 117 ± 2.9% | 112 ± 1.1% | 104 ± 3.9% |
| CN(CCOc1ccc(CC2SC(=O)NC2=O)cc1)c1ccccn1 (stereo not drawn) [Rosiglitazone (Avandia)] | 112.8 ± 0.24% | 102 ± 8.2% | 99.4 ± 1% | 101 ± 3% | 102 ± 1.4% | 89.188 ± 0.073% | 97.1 ± 3.3% | 105 ± 2.9% | 102 ± 2.3% | 101 ± 3.8% | 105.9 ± 0.89% | 105 ± 1.4% |
| Cc1ccc(S(=O)(=O)OCC(=O)Nc2ccc(C(=O)O)c(O)c2)cc1 [S31-201] | 119.8 ± 0.59% | 125 ± 1.4% | 123 ± 3.5% | 121 ± 3.3% | 112 ± 1.6% | 119.2 ± 0.71% | 99.4 ± 2% | 98.17 ± 0.7% | 104 ± 2.1% | 102.7 ± 0.83% | 100 ± 1.8% | 101 ± 1.9% |
| COc1ccc([C@H]2CNC(=O)C2)cc1OC1CCCC1 [S-(+)-Rolipram] | 101 ± 4.1% | 102 ± 1.8% | 102 ± 3.9% | 101 ± 2.3% | 96.742 ± 0.089% | 103.39 ± 0.018% | 103 ± 5.1% | 100 ± 2% | 104 ± 3.3% | 104 ± 2.8% | 104 ± 3.2% | 106 ± 2.3% |
| CN1CCC(CNc2ccc3ncc(-c4cccc(OC(F)(F)F)c4)n3n2)CC1 [SGI-1776] | 93.93 ± 0.059% | 110 ± 1.1% | 98.6 ± 2.4% | 96.61 ± 0.13% | 86.6 ± 1.3% | 0.96 ± 0.17% | 94.08 ± 0.52% | 101 ± 1.6% | 101 ± 1.6% | 98.8 ± 2.8% | 82.6 ± 2% | 0.884 ± 0.13% |
| O=C(Nc1cccc(Cl)c1)Nc1ncc(CCNc2ncnc3ccsc23)s1 [SNS-314 Mesylate] | 107 ± 3% | 85.4 ± 1.4% | 83.06 ± 0.37% | 65.9 ± 0.75% | 79.5 ± 4.8% | 67.3 ± 1.1% | 102.7 ± 0.28% | 104 ± 1.1% | 98.4 ± 1.1% | 93.6 ± 1.6% | 89.5 ± 1.7% | 77.2 ± 2.1% |
